Calls of active or inactive are those of the source.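 The calls were made as follows: active = blocks protein phosphatase 1 activity with an IC50 half-maximal inhibitory concentration below 10 µM; inactive = IC50 of 10 µM or higher.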
Target: Serine/threonine-protein phosphatase PP1-alpha catalytic subunit (Homo sapiens) (UniProt P62136)
Experiment: PP1alpha inhibitors on histone substrate, IC50 – biochemical, radiolabel, dose response, powder samples, late-stage follow-up (AID 652232)
Details: purified PP1alpha, 33P-phosphohistone dephosphorylation, scintillation

Serine/threonine-protein phosphatase PP1-alpha catalytic subunit (Homo sapiens), sequence (P62136 whole entry, looked up): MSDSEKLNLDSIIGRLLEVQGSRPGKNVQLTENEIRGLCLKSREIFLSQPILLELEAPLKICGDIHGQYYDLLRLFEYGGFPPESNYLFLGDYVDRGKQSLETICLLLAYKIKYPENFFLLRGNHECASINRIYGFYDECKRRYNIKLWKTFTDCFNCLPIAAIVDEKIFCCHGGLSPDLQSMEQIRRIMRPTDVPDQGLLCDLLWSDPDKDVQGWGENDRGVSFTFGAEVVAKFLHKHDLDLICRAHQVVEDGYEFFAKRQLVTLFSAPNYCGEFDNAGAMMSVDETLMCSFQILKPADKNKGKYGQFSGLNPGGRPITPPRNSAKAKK

| Compound | IC50 |
| --- | --- |
| Oc1c(C(c2ccccn2)N2CCC(Cc3ccccc3)CC2)cc(Cl)c2cccnc12 (centres undefined) | 27 µM |
| CC1CCN(C(c2ccccn2)c2cc(Cl)c3cccnc3c2O)CC1 (centres undefined) | inactive |
| CC(C)(C)OC(=O)N1CCN(C(c2ccccn2)c2cc(Cl)c3cccnc3c2O)CC1 (centres undefined) | 44.2 µM |
| Oc1c(C(c2ccccn2)N2CCN(c3ccccc3F)CC2)cc(Cl)c2cccnc12 (centres undefined) | inactive |

— PubChem BioAssay AID652232 (The Scripps Research Institute Molecular Screening Center, 2013)
